Patent US8093279B2, “Compound” (priority 2005, dated 2012)

Columns and labels:
Aromatase = molecular target: T1, Aromatase (Homo sapiens, UniProt P11511); assay: Aromatase activity in JEG3 choriocarcinoma cells (Protocol 6); assay type: cell-based; conditions: for IC50: JEG3 cells
T1 construct: host or cells: JEG3 choriocarcinoma cells (intact monolayers)
T1 sequence (P11511 1-503): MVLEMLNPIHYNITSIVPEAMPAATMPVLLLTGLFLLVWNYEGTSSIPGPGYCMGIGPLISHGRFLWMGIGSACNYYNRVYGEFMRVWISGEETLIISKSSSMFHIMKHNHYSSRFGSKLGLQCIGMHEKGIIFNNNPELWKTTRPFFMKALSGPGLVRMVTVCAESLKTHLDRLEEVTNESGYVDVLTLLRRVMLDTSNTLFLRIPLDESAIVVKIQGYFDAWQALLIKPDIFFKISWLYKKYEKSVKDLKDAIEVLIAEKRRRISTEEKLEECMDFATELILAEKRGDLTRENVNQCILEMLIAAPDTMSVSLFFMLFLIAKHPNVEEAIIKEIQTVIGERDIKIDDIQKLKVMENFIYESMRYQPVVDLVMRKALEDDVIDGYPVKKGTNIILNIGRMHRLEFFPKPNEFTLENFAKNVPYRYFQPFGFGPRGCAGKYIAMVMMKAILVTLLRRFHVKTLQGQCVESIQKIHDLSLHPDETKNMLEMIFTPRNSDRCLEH
Experimental: Aromatase activity is measured in JEG3 choriocarcinoma cells, obtained from the ATCC.
During the aromatase reaction, ^3H2O is liberated which can be quantified using a liquid scintillation spectrometer (Beckman-Coulter, High Wycombe, Bucks. UK). […] The number of cell nuclei per flask is determined using a Coulter Counter after treating the cell monolayers with Z aponin.
Unpaired Student's t test was used to test the statistical significance of results.
A number of compounds were tested for aromatase and steroid sulphatase inhibition in accordance with the above Protocols 1 and 6.

| SMILES | IC50 (Aromatase) | melting point | JEG3-cells Aromatase, % at single concentration (Aromatase; @ 1 μM) |
| --- | --- | --- | --- |
| CC(C)(C#N)c1cc(Cn2cncn2)cc(-c2ccc3ccccc3c2)c1 [compound 1508] | < 1 µM | – | – |
| Clc1cccc(-c2cccc(Cn3cncn3)c2)c1 [compound 1384] | < 1 µM | – | – |
| Oc1cccc(-c2cccc(Cn3cncn3)c2)c1 [compound 1840] | < 1 µM | – | – |
| CC(C)(C#N)c1cc(Cn2cncn2)cc(-c2ccccc2)c1 [compound 1506] | < 1 µM | – | – |
| c1ccc(Oc2ccccc2-c2ccc(Cn3cncn3)cc2)cc1 [compound 1835] | < 1 µM | – | – |
| N#Cc1ccc(Cn2cncn2)cc1-c1ccc(Cl)c(O)c1 [Compound 25] | < 1 µM | 228 to 229 °C | – |
| Oc1ccc(-c2cccc(Cn3cncn3)c2)cc1 [compound 1387] | < 1 µM | – | – |
| N#Cc1cc(Cn2cncn2)cc(-c2ccc(O)cc2)c1 [Compound 37, 5-((1H-1,2,4-triazol-1-yl)methyl)-4′-hydroxybiphenyl-3-carbonitrile] | < 1 µM | 186 to 187 °C | – |
| c1ccc(-c2cccc(Cn3cncn3)c2)cc1 [compound 1361] | < 1 µM | – | – |
| N#Cc1ccc(-c2ccc(C#N)c(Cn3cncn3)c2)cc1 [compound 1510] | < 1 µM | – | – |
| c1ccc(COc2ccc(-c3cccc(Cn4cncn4)c3)cc2)cc1 [compound 1362] | < 10 µM | – | – |
| N#Cc1cc(Cn2cncn2)ccc1-c1ccccc1 [Compound 46] | < 1 µM | – | – |
| N#Cc1ccc(-c2cccc(O)c2)cc1Cn1cncn1 [compound 1843] | < 1 µM | – | – |
| COc1ccc(-c2cccc(Cn3cncn3)c2)cc1 [compound 1452] | < 1 µM | – | – |
| c1ccc(-c2ccc(-c3cccc(Cn4cncn4)c3)cc2)cc1 [compound 1388] | < 10 µM | – | – |
| N#Cc1cc(Cn2cncn2)cc(-c2ccc(OS(N)(=O)=O)cc2)c1 [Compound 38, 3′-((1H-1,2,4-triazol-1-yl)methyl)-5′-cyanobiphenyl-4-yl sulfamate] | < 1 µM | 166 to 167 °C | – |
| N#Cc1ccc(-c2cccc(Cl)c2)cc1Cn1cncn1 [compound 1503] | < 1 µM | – | – |
| N#Cc1ccc(-c2ccc3ccccc3c2)cc1Cn1cncn1 [compound 1504] | < 1 µM | – | – |
| Fc1cccc(-c2cccc(Cn3cncn3)c2)c1 [compound 1524] | < 1 µM | – | – |
| c1cc(Cn2cncn2)cc(-c2ccc3ccccc3c2)c1 [compound 1385] | < 1 µM | – | – |

| SMILES | IC50 (Aromatase) | melting point | JEG3-cells Aromatase, % at single concentration (Aromatase; @ 1 μM) |
| --- | --- | --- | --- |
| N#Cc1ccc(-c2ccccc2)cc1Cn1cncn1 [compound 1456] | < 1 µM | – | – |
| CN(C)S(=O)(=O)Oc1ccc(-c2cc(Cn3cncn3)ccc2C#N)cc1Cl [Compound 24, 5′-((1H-1,2,4-triazol-1-yl)methyl)-3-chloro-2′-cyanobiphenyl-4-yl dimethylsulfamate] | < 1 µM | 119 to 120 °C | – |
| N#Cc1cc(Cn2cncn2)cc(-c2ccccc2)c1 [Compound 34, 5-((1H-1,2,4-triazol-1-yl)methyl)biphenyl-3-carbonitrile] | < 1 µM | 109 to 110 °C | – |
| N#Cc1ccc(Cn2cncn2)c(-c2ccc(OS(N)(=O)=O)c(Cl)c2)c1 [Compound 53, 2′-((1H-1,2,4-triazol-1-yl)methyl)-3-chloro-5′-cyanobiphenyl-4-yl sulfamate] | < 1 µM | 139 to 142 °C | – |
| N#Cc1cc(Cn2cncn2)cc(-c2ccc(O)c(Cl)c2)c1 [Compound 39] | < 1 µM | 208 to 209 °C | – |
| N#Cc1cc(Cn2cncn2)ccc1-c1ccc(O)cc1 [Compound 47] | < 1 µM | 168 to 171 °C | – |
| Oc1ccc(-c2ccc(F)c(Cn3cncn3)c2)cc1 [compound 1842] | < 1 µM | – | – |
| Fc1ccc(-c2ccccc2)cc1Cn1cncn1 [compound 1841] | < 1 µM | – | – |
| CN(C)S(=O)(=O)Oc1ccc(-c2cc(Cn3cncn3)ccc2C#N)cc1 [Compound 21, 5′-((1H-1,2,4-triazol-1-yl)methyl)-2′-cyanobiphenyl-4-yl dimethylsulfamate] | < 1 µM | – | – |
| CC(=O)c1cccc(-c2cccc(Cn3cncn3)c2)c1 [compound 1838] | < 1 µM | – | – |
| N#Cc1ccc(Cn2cncn2)cc1-c1ccc(Cl)c(OS(N)(=O)=O)c1 [Compound 26, 5′-((1H-1,2,4-triazol-1-yl)methyl)-4-chloro-2′-cyanobiphenyl-3-yl sulfamate] | < 1 µM | 148 to 150 °C | – |
| N#Cc1cccc(-c2cccc(Cn3cncn3)c2)c1 [compound 1458] | < 1 µM | – | – |
| CC(C)(C#N)c1cc(Cn2cncn2)cc(-c2cccc(C(=O)c3ccccc3)c2)c1 [compound 1844] | < 1 µM | – | – |
| N#Cc1ccc(-c2ccc(OCc3ccccc3)cc2)cc1Cn1cncn1 [compound 1457] | < 10 µM | – | – |
| COc1ccc2cc(-c3cccc(Cn4cncn4)c3)ccc2c1 [compound 1981] | < 1 µM | – | – |
| Clc1cc(-c2cccc(Cn3cncn3)c2)ccc1OCc1ccccc1 [compound 1502] | < 10 µM | – | – |
| COc1ccc(-c2cccc(Cn3cncn3)c2)cc1Cl [compound 1512] | < 1 µM | – | – |
| O=C(c1ccccc1)c1cccc(-c2cccc(Cn3cncn3)c2)c1 [compound 1511] | < 1 µM | – | – |
| c1ccc(-c2ccc(Cn3cncn3)cc2)cc1 [compound 1975] | < 10 µM | – | – |
| CC(C)(C#N)c1cc(Cn2cncn2)cc(-c2ccc(OS(N)(=O)=O)cc2)c1 [Compound 56, 3′-((1H-1,2,4-triazol-1-yl)methyl)-5′-(2-cyanopropan-2-yl)biphenyl-4-yl sulfamate] | < 1 µM | 74 to 76 °C | – |

| SMILES | IC50 (Aromatase) | melting point | JEG3-cells Aromatase, % at single concentration (Aromatase; @ 1 μM) |
| --- | --- | --- | --- |
| CC(C)(C#N)c1cc(Cn2cncn2)cc(-c2cccc(C#N)c2)c1 [compound 1509] | < 1 µM | – | – |
| N#Cc1ccc(-c2ccc(O)cc2)cc1Cn1cncn1 [compound 1520] | < 1 µM | – | – |
| Oc1ccc(-c2cccc(Cn3cncn3)c2)cc1Cl [compound 1519] | < 1 µM | – | – |
| N#Cc1ccc(-c2cc(C#N)cc(Cn3cncn3)c2)cc1 [Compound 36, 5-((1H-1,2,4-triazol-1-yl)methyl)biphenyl-3,4′-dicarbonitrile] | < 1 µM | 154 to 155 °C | – |
| CC(C)(C#N)c1cc(Cn2cncn2)cc(-c2ccc(O)cc2)c1 [compound 1521] | < 1 µM | – | – |
| N#Cc1cccc(-c2ccc(C#N)c(Cn3cncn3)c2)c1 [compound 1505] | < 10 µM | – | – |
| N#Cc1ccc(Cn2cncn2)cc1-c1ccccc1 [compound 1978] | < 1 µM | – | – |
| N#Cc1ccc(-c2cccc(Cn3cncn3)c2)cc1 [compound 1459] | < 1 µM | – | – |
| N#Cc1cc(Cn2cncn2)cc(-c2ccc(F)cc2)c1 [Compound 35, 5-((1H-1,2,4-triazol-1-yl)methyl)-4′-fluorobiphenyl-3-carbonitrile] | < 1 µM | 134 to 135 °C | – |
| N#Cc1ccc(Cn2cncn2)c(-c2ccc(O)c(Cl)c2)c1 [Compound 52, 6-((1H-1,2,4-triazol-1-yl)methyl)-3′-chloro-4′-hydroxybiphenyl-3-carbonitrile] | < 1 µM | 243 to 245 °C | – |
| N#Cc1cc(Cn2cncn2)ccc1-c1ccc(O)c(Cl)c1 [Compound 49, 4-((1H-1,2,4-triazol-1-yl)methyl)-3′-chloro-4′-hydroxybiphenyl-2-carbonitrile] | < 1 µM | 195 to 197 °C | – |
| N#Cc1ccc(-c2cccc(OS(N)(=O)=O)c2)cc1Cn1cncn1 [Compound 29, 3′-((1H-1,2,4-triazol-1-yl)methyl)-4′-cyanobiphenyl-3-yl sulfamate] | – | 137 to 138 °C | 63.4 ± 2.1% @ 1 μM |
| N#Cc1ccc(Cn2cncn2)c(-c2ccccc2)c1 [Compound 51] | < 1 µM | – | – |
| Fc1ccc(-c2cccc(Cn3cncn3)c2)cc1 [compound 1525] | < 1 µM | – | – |
| NS(=O)(=O)Oc1ccc2cc(-c3cccc(Cn4cncn4)c3)ccc2c1 [compound 2052] | < 10 µM | – | – |
| c1cc(Cn2cncn2)cc(-c2cccc3c2oc2ccccc23)c1 [compound 1839] | < 1 µM | – | – |
| CC(C)(C#N)c1cc(Cn2cncn2)cc(-c2cccc(Cl)c2)c1 [compound 1507] | < 1 µM | – | – |
| Clc1ccc(-c2cccc(Cn3cncn3)c2)cc1 [compound 1386] | < 1 µM | – | – |
